Laboratory results from ChEMBL document CHEMBL3885861, “Open TG-GATES”.

Species: Rattus norvegicus
Test: Open TG-GATES - Regimen: Daily Repeat
Type: toxicity, organism-based, Sprague-Dawley
Set-up: regimen Daily Repeat, gender Male, age 6 weeks
Conditions: in vivo, po, 600 mg/kg, route gavage, dose level High; for KIDNEY_L / KIDNEY_R / KIDNEY_TOTAL: tissue Kidney; for ALP / ALT / AST / BUN / CRE / Ca / Cl / DBIL / GLC / IP / K / LDH / Na / PL / RALB / TBIL / TC / TG / TP / gamma-GTP: tissue Plasma

`CC(=O)Nc1nnc(S(N)(=O)=O)s1` [ACETAZOLAMIDE] gave a Bas (72 h, tissue Blood, time 3 day) of 0%, an Eos (72 h, tissue Blood, time 3 day) of 1% and a Fbg (72 h, tissue Blood, time 3 day) of 285 mg/dL. The Ht (72 h, tissue Blood, time 3 day) was 41.9%, the Lym (72 h, tissue Blood, time 3 day) was 86% and the MCH (72 h, tissue Blood, time 3 day) was 20.5 pg. The MCHC (72 h, tissue Blood, time 3 day) was 34.2%, the MCV (72 h, tissue Blood, time 3 day) was 59.9 fL and the Mono (72 h, tissue Blood, time 3 day) was 2.4%. It also gave a Neu (72 h, tissue Blood, time 3 day) of 9.6%, a PT (72 h, tissue Blood, time 3 day) of 17.7 s and an RBC (72 h, tissue Blood, time 3 day) of 699.4 x10_4/ul. For the same compound, the Ret (72 h, tissue Blood, time 3 day) was 3.9%, the KIDNEY_L (72 h, time 3 day) was 0.9 g and the KIDNEY_R (72 h, time 3 day) was 0.9 g. The KIDNEY_TOTAL (72 h, time 3 day) was 1.8 g, the ALP (72 h, time 3 day) was 1356 IU/L and the ALT (72 h, time 3 day) was 43 IU/L. It also gave an AST (72 h, time 3 day) of 57.8 IU/L, a BUN (72 h, time 3 day) of 22.6 mg/dL and a CRE (72 h, time 3 day) of 0.2 mg/dL. The Ca (72 h, time 3 day) was 10.8 mg/dL, the Cl (72 h, time 3 day) was 116 meq/L and the DBIL (72 h, time 3 day) was 0 mg/dL. It also gave a GLC (72 h, time 3 day) of 186.6 mg/dL, an IP (72 h, time 3 day) of 7.9 mg/dL and a K (72 h, time 3 day) of 4.1 meq/L. The LDH (72 h, time 3 day) was 211.2 IU/L, the Na (72 h, time 3 day) was 142.6 meq/L and the PL (72 h, time 3 day) was 151.8 mg/dL. For the same compound, the RALB (72 h, time 3 day) was 3 g/dL, the TBIL (72 h, time 3 day) was 0.006 mg/dL and the TC (72 h, time 3 day) was 84 mg/dL. For the same compound, the TG (72 h, time 3 day) was 90.6 mg/dL, the TP (72 h, time 3 day) was 5.4 g/dL and the gamma-GTP (72 h, time 3 day) was 1 IU/L. For the same compound, the TERMINAL_BW ([…], time 7 day) was 226.8 g, the TERMINAL_BW ([…], time 14 day) was 263.9 g and the TERMINAL_BW ([…], time 28 day) was 330.6 g. It also gave an APTT ([…], tissue Blood, time 7 day) of 19.2 s, a Bas ([…], tissue Blood, time 7 day) of 0% and an Eos ([…], tissue Blood, time 7 day) of 1%. The Fbg ([…], tissue Blood, time 7 day) was 314.4 mg/dL, the Ht ([…], tissue Blood, time 7 day) was 39.9% and the MCH ([…], tissue Blood, time 7 day) was 21 pg. It also gave an MCHC ([…], tissue Blood, time 7 day) of 34.5%, an MCV ([…], tissue Blood, time 7 day) of 60.9 fL and a Mono ([…], tissue Blood, time 7 day) of 2.4%. For the same compound, the RBC ([…], tissue Blood, time 7 day) was 656.2 x10_4/ul, the Ret ([…], tissue Blood, time 7 day) was 6% and the APTT ([…], tissue Blood, time 14 day) was 21.5 s. It also gave a Bas ([…], tissue Blood, time 14 day) of 0%, an Eos ([…], tissue Blood, time 14 day) of 0.8% and a Fbg ([…], tissue Blood, time 14 day) of 315.6 mg/dL. It also gave an MCH ([…], tissue Blood, time 14 day) of 20.4 pg, an MCHC ([…], tissue Blood, time 14 day) of 35.3% and an MCV ([…], tissue Blood, time 14 day) of 57.8 fL. For the same compound, the Mono ([…], tissue Blood, time 14 day) was 2.4%, the Neu ([…], tissue Blood, time 14 day) was 23.6% and the PT ([…], tissue Blood, time 14 day) was 16.7 s. It also gave an RBC ([…], tissue Blood, time 14 day) of 708 x10_4/ul, a Ret ([…], tissue Blood, time 14 day) of 5.3% and an APTT ([…], tissue Blood, time 28 day) of 23 s. The Bas ([…], tissue Blood, time 28 day) was 0%, the Eos ([…], tissue Blood, time 28 day) was 1% and the Fbg ([…], tissue Blood, time 28 day) was 306.4 mg/dL. For the same compound, the Ht ([…], tissue Blood, time 28 day) was 42.1%, the MCH ([…], tissue Blood, time 28 day) was 19.4 pg and the MCHC ([…], tissue Blood, time 28 day) was 34%. The MCV ([…], tissue Blood, time 28 day) was 57 fL, the Mono ([…], tissue Blood, time 28 day) was 2.8% and the PT ([…], tissue Blood, time 28 day) was 16.9 s. It also gave an RBC ([…], tissue Blood, time 28 day) of 739.2 x10_4/ul, a Ret ([…], tissue Blood, time 28 day) of 3.4% and a KIDNEY_L ([…], time 7 day) of 1.1 g. For the same compound, the KIDNEY_R ([…], time 7 day) was 1.1 g, the KIDNEY_TOTAL ([…], time 7 day) was 2.1 g and the KIDNEY_L ([…], time 14 day) was 1.2 g. The KIDNEY_R ([…], time 14 day) was 1.3 g, the KIDNEY_TOTAL ([…], time 14 day) was 2.5 g and the KIDNEY_L ([…], time 28 day) was 1.4 g. For the same compound, the KIDNEY_R ([…], time 28 day) was 1.4 g, the KIDNEY_TOTAL ([…], time 28 day) was 2.8 g and the ALP ([…], time 7 day) was 1613 IU/L. For the same compound, the ALT ([…], time 7 day) was 46 IU/L, the AST ([…], time 7 day) was 71.6 IU/L and the BUN ([…], time 7 day) was 20 mg/dL. The CRE ([…], time 7 day) was 0.2 mg/dL, the Ca ([…], time 7 day) was 10.9 mg/dL and the Cl ([…], time 7 day) was 114.2 meq/L. It also gave a DBIL ([…], time 7 day) of 0 mg/dL, a GLC ([…], time 7 day) of 179.8 mg/dL and an IP ([…], time 7 day) of 7.2 mg/dL. The K ([…], time 7 day) was 4.2 meq/L, the LDH ([…], time 7 day) was 162.8 IU/L and the Na ([…], time 7 day) was 144.6 meq/L. The PL ([…], time 7 day) was 167.4 mg/dL, the RALB ([…], time 7 day) was 3 g/dL and the TBIL ([…], time 7 day) was 0 mg/dL. The TC ([…], time 7 day) was 84.2 mg/dL, the TG ([…], time 7 day) was 124 mg/dL and the TP ([…], time 7 day) was 5.4 g/dL. The gamma-GTP ([…], time 7 day) was 1.2 IU/L, the ALP ([…], time 14 day) was 1257.6 IU/L and the ALT ([…], time 14 day) was 40.4 IU/L. It also gave an AST ([…], time 14 day) of 61.4 IU/L, a BUN ([…], time 14 day) of 18.8 mg/dL and a CRE ([…], time 14 day) of 0.2 mg/dL. The Ca ([…], time 14 day) was 10.5 mg/dL, the Cl ([…], time 14 day) was 110.6 meq/L and the DBIL ([…], time 14 day) was 0 mg/dL. It also gave a GLC ([…], time 14 day) of 181.8 mg/dL, an IP ([…], time 14 day) of 7 mg/dL and a K ([…], time 14 day) of 3.7 meq/L. For the same compound, the LDH ([…], time 14 day) was 141.6 IU/L, the Na ([…], time 14 day) was 143.4 meq/L and the PL ([…], time 14 day) was 152.2 mg/dL. For the same compound, the RALB ([…], time 14 day) was 3 g/dL, the TBIL ([…], time 14 day) was 0.004 mg/dL and the TC ([…], time 14 day) was 76.2 mg/dL. The TG ([…], time 14 day) was 130.4 mg/dL, the TP ([…], time 14 day) was 5.5 g/dL and the gamma-GTP ([…], time 14 day) was 1.8 IU/L. For the same compound, the ALP ([…], time 28 day) was 1120.2 IU/L, the AST ([…], time 28 day) was 66.4 IU/L and the BUN ([…], time 28 day) was 18.4 mg/dL. For the same compound, the CRE ([…], time 28 day) was 0.2 mg/dL, the Ca ([…], time 28 day) was 10.2 mg/dL and the Cl ([…], time 28 day) was 111.2 meq/L. For the same compound, the DBIL ([…], time 28 day) was 0 mg/dL, the GLC ([…], time 28 day) was 178 mg/dL and the IP ([…], time 28 day) was 5.6 mg/dL. For the same compound, the K ([…], time 28 day) was 3.8 meq/L, the LDH ([…], time 28 day) was 149 IU/L and the Na ([…], time 28 day) was 142.6 meq/L. The PL ([…], time 28 day) was 136.2 mg/dL, the RALB ([…], time 28 day) was 3.2 g/dL and the TBIL ([…], time 28 day) was 0.01 mg/dL. It also gave a TC ([…], time 28 day) of 71.6 mg/dL, a TG ([…], time 28 day) of 115.4 mg/dL and a TP ([…], time 28 day) of 5.6 g/dL. It also gave a gamma-GTP ([…], time 28 day) of 2.2 IU/L.
